Read-outs that look alike come from different tables or passages of the source.
How the values were obtained:
[1] = tested on: Human prostate cancer cell line (PC-3); experiment: MTT cell proliferation assay, cytotoxicity and GI50, PC-3; details: read-out: Cytotoxic activity (GI50 Values) PC-3
Protocol: Cell Culture and Cytotoxicity:
(§1) Human prostate cancer cell line (PC-3) and human colon cancer cell line (HT-29) were obtained from the German Collection of Microorganisms. All cell lines were cultivated under conditions recommended by their respective depositors. […] For PC-3 cell lines 500 cells per well and for HT-29 cell lines 1500-2000 cells per well were seeded overnight into 96-well cell culture plates (TPP, Trasadingen, Switzerland) and exposed to serial dilutions of each inhibitor for 3 days. Formazan salt formation was measured at 490 nm using an enzyme-linked immunosorbent assay (ELISA) reader (DYNEX technologies MRX TC II). From each compound four independent replicates were prepared.

[2] = tested on: human colon cancer cell line (HT-29); experiment: MTT cell proliferation assay, cytotoxicity and GI50, HT-29; details: read-out: Cytotoxic activity (GI50 Values) HT-29
Protocol: Cell Culture and Cytotoxicity:
as §1

## CC[C@H](C)[C@H](NC(=O)[C@H]1CCCCN1C)C(=O)N(COC(=O)CC(C)C)[C@H](C[C@@H](OC(C)=O)c1nc(C(=O)N[C@@H](Cc2ccc(O)cc2)C[C@H](C)C(=O)O)cs1)C(C)C [tubulysin A, reference compound]
[1]; PC-3 cells, exposed 3 days, MTT, four independent replicates
  GI50: 0.21 nM
[2]; HT-29 cells, exposed 3 days, MTT, four independent replicates
  GI50: 0.32 nM

## CCCCNC(=O)C(C)N(C(=O)[C@@H](NC(=O)[C@H]1CCCCN1C)[C@@H](C)CC)[C@H](C[C@@H](OC(C)=O)c1nc(C(=O)N[C@@H](Cc2ccccc2)C[C@H](C)C(=O)O)cs1)C(C)C (stereo partly shown) [tubugi D]
[1]; Homo sapiens, PC-3, 72 h
  GI50: 0.22 nM
[2]; Homo sapiens, HT-29, 72 h
  GI50: 0.56 nM

## CCCCNC(=O)CN(C(=O)[C@@H](NC(=O)[C@H]1CCCCN1C)[C@@H](C)CC)[C@H](C[C@@H](OC(C)=O)c1nc(C(=O)N[C@@H](Cc2ccccc2)C[C@H](C)C(=O)O)cs1)C(C)C [tubugi A]
[1]; Homo sapiens, PC-3, 72 h
  GI50: 0.23 nM
[2]; Homo sapiens, HT-29, 72 h
  GI50: 0.14 nM

## CC(=O)O[C@H]1C(=O)[C@@]2(C)[C@H]([C@H](OC(=O)c3ccccc3)[C@]3(O)C[C@H](OC(=O)[C@H](O)[C@@H](NC(=O)c4ccccc4)c4ccccc4)C(C)=C1C3(C)C)[C@]1(OC(C)=O)CO[C@@H]1C[C@@H]2O [taxol, reference compound]
[1]; Homo sapiens, PC-3, 72 h
  GI50: 7.2 nM
[2]; Homo sapiens, HT-29, 72 h
  GI50: 5.3 nM

## CC[C@H](C)[C@H](NC(=O)[C@H]1CCCCN1C)C(=O)N(CC(=O)NC(C)C)[C@H](C[C@@H](OC(C)=O)c1nc(C(=O)N[C@@H](Cc2ccccc2)C[C@H](C)C(=O)O)cs1)C(C)C [tubugi B]
[1]; Homo sapiens, PC-3, 72 h
  GI50: 0.29 nM
[2]; Homo sapiens, HT-29, 72 h
  GI50: 0.34 nM

— patent US9371358B2 (priority 2010, dated 2016)
